Test results taken from patent publication US4434170A, “Nor-tropane derivatives, and their application in therapeutics” (Delalande S.A., priority 1980, dated 1984).

Key:
[1] = tested on: apomorphine induced stereotypies; experiment: Antagonism to the apomorphine induced stereotypies (rat); type: in vivo; settings: po
Source text: (§1) I. C. Niemegeers and A. H. M. Jageneau in Arzneim-Forsch. (1960), 10, 1003.

[2] = tested on: apomorphinic straightenings; experiment: Antagonism to apomorphinic straightenings (mice); type: in vivo; settings: Mus musculus, ip, read-out: Antagonism to apomorphinic straightenings (mice) ED 50
Source text: as §1

Acute toxicity (mice) = settings: mouse, in vivo, ip, read-out: Toxicity (mice) LD 50
Experimental: The acute toxicity of the compounds of the invention was also tested intraperitoneally on mice.

Stair case test (rat) = type: in vivo; settings: po, sedative effect
[3] = tested on: vomiting induced by apomorphine; experiment: Antiemetic activity (dogs), vomiting induced by apomorphine; type: in vivo; settings: one hour before apomorphine 0.1 mg/kg subcutaneous
gastric evacuation = experiment: Gastric evacuation test (rat); type: in vivo
Experimental: The compounds of formula (I) were administered orally simultaneously with 20 steel balls to wakeful rats starved for 20 hours.

## CCOc1cccc(C(=O)N[C@@H]2C[C@H]3CC[C@@H](C2)N3Cc2ccccc2)c1OCC [compound 115]
[1]
  ED50: 0.22 mg/kg
[2]
  ED50: 0.038 mg/kg
Acute toxicity (mice)
  LD50: 53 mg/kg
Stair case test (rat)
  ED50: 1.3 mg/kg

## COc1cccc(C(=O)N[C@@H]2C[C@H]3CCC[C@@H](C2)N3Cc2ccccc2)c1OC [compound 148]
[2]
  ED50: 0.008 mg/kg
Acute toxicity (mice)
  LD50: 100 mg/kg

## CCOc1cc(N)c(Br)cc1C(=O)N[C@@H]1C[C@H]2CC[C@@H](C1)N2Cc1cccc(Cl)c1 [compound 126]
[2]
  ED50: 0.054 mg/kg
Acute toxicity (mice)
  LD50: > 400 mg/kg

## COc1cccc(C(=O)N[C@@H]2C[C@H]3CC[C@@H](C2)N3Cc2ccc(Cl)cc2)c1OC [compound 112]
[2]
  ED50: 0.029 mg/kg
Acute toxicity (mice)
  LD50: 220 mg/kg

## CCSc1cc(OC)c(OC)c(C(=O)N[C@@H]2C[C@H]3CC[C@@H](C2)N3Cc2ccccc2)c1 [compound 174]
[2]
  ED50: 0.034 mg/kg
Acute toxicity (mice)
  LD50: 95 mg/kg

## COc1cc(N)c(Br)cc1C(=O)N[C@@H]1C[C@H]2CC[C@@H](C1)N2Cc1ccccc1F [compound 131]
[2]
  ED50: 0.013 mg/kg
Acute toxicity (mice)
  LD50: 250 mg/kg

## COc1cccc(C(=O)N[C@@H]2C[C@H]3CC[C@@H](C2)N3Cc2ccc(C)cc2)c1OC [compound 120]
[2]
  ED50: 0.032 mg/kg
Acute toxicity (mice)
  LD50: 100 mg/kg

## CCOc1c(OC)cc(OC)cc1C(=O)N[C@@H]1C[C@H]2CC[C@@H](C1)N2Cc1ccccc1 [compound 141]
[2]
  ED50: 0.035 mg/kg
Acute toxicity (mice)
  LD50: 115 mg/kg

## COc1cccc(C(=O)N[C@@H]2C[C@H]3CC[C@@H](C2)N3Cc2ccc(F)cc2)c1OC [compound 155]
[2]
  ED50: 0.005 mg/kg
Acute toxicity (mice)
  LD50: 140 mg/kg

## COc1cc([N+](=O)[O-])cc(C(=O)N[C@@H]2C[C@H]3CC[C@@H](C2)N3Cc2ccccc2)c1OC [compound 142]
[2]
  ED50: 0.012 mg/kg
Acute toxicity (mice)
  LD50: 87.5 mg/kg

## COc1cccc(C(=O)N[C@@H]2C[C@H]3CC[C@@H](C2)N3Cc2cccc(Cl)c2)c1OC [compound 173]
[2]
  ED50: 0.013 mg/kg
Acute toxicity (mice)
  LD50: 160 mg/kg

## COc1cc(C(C)=O)cc(C(=O)N[C@@H]2C[C@H]3CC[C@@H](C2)N3Cc2ccccc2)c1OC [compound 171]
[2]
  ED50: 0.029 mg/kg
Acute toxicity (mice)
  LD50: 115 mg/kg

## COc1cc(N)c(Cl)cc1C(=O)N[C@@H]1C[C@H]2CC[C@@H](C1)N2Cc1cccc(C)c1 [compound 169]
[1]
  ED50: 0.46 mg/kg
[2]
  ED50: 0.034 mg/kg
Acute toxicity (mice)
  LD50: 70 mg/kg
Stair case test (rat)
  ED50: 3.5 mg/kg

## CCOc1cccc(C(=O)N[C@@H]2C[C@H]3CC[C@@H](C2)N3Cc2ccccc2)c1OC [compound 140]
[2]
  ED50: 0.019 mg/kg
Acute toxicity (mice)
  LD50: 70 mg/kg

## CCOc1c(OC)cccc1C(=O)N[C@@H]1C[C@H]2CCC[C@@H](C1)N2Cc1ccccc1 [compound 143]
[1]
  ED50: 0.26 mg/kg
[2]
  ED50: 0.025 mg/kg
Acute toxicity (mice)
  LD50: 110 mg/kg
Stair case test (rat)
  ED50: 1.6 mg/kg

## COc1cc(Br)cc(C(=O)N[C@@H]2C[C@H]3CC[C@@H](C2)N3Cc2ccccc2)c1OC [compound 147]
[3]; 0.1 mg/kg/po
  Antiemetic activity: % inhibition of vomiting induced by apomorphine: 100%
[2]
  ED50: 0.042 mg/kg
Gastric evacuation; 0.3 mg/kg/po
  Gastric evacuation: % animals whose stomach contains no ball after 90 minutes: 25%
Gastric evacuation; 0.6 mg/kg/po
  Gastric evacuation: % animals whose stomach contains no ball after 90 minutes: 63%
Gastric evacuation; 10 mg/kg/po
  Gastric evacuation: % animals whose stomach contains no ball after 90 minutes: 90%
Acute toxicity (mice)
  LD50: 165 mg/kg

## COc1cc(SC)cc(C(=O)N[C@@H]2C[C@H]3CC[C@@H](C2)N3Cc2ccccc2)c1OC [compound 168]
[2]
  ED50: 0.28 mg/kg
Acute toxicity (mice)
  LD50: 120 mg/kg

## COc1cc(N)c(Br)cc1C(=O)N[C@@H]1C[C@H]2CC[C@@H](C1)N2Cc1ccoc1 [compound 132]
[3]; 0.01 mg/kg/po
  Antiemetic activity: % inhibition of vomiting induced by apomorphine: 100%
[2]
  ED50: 0.12 mg/kg
Gastric evacuation; 0.6 mg/kg/po
  Gastric evacuation: % animals whose stomach contains no ball after 90 minutes: 25%
Gastric evacuation; 1.3 mg/kg/po
  Gastric evacuation: % animals whose stomach contains no ball after 90 minutes: 50%
Gastric evacuation; 5 mg/kg/po
  Gastric evacuation: % animals whose stomach contains no ball after 90 minutes: 75%
Gastric evacuation; 10 mg/kg/po
  Gastric evacuation: % animals whose stomach contains no ball after 90 minutes: 100%
Acute toxicity (mice)
  LD50: 200 mg/kg

## CCOc1cc(N)c(Br)cc1C(=O)N[C@@H]1C[C@H]2CC[C@@H](C1)N2Cc1ccc(Cl)cc1 [compound 123]
[1]
  ED50: 0.2 mg/kg
[2]
  ED50: 0.041 mg/kg
Acute toxicity (mice)
  LD50: > 400 mg/kg
Stair case test (rat)
  ED50: 1.7 mg/kg

## CCOc1c(OC)cccc1C(=O)N[C@@H]1C[C@H]2CC[C@@H](C1)N2Cc1ccccc1 [compound 139]
[1]
  ED50: 0.06 mg/kg
[2]
  ED50: 0.01 mg/kg
Acute toxicity (mice)
  LD50: 76 mg/kg
Stair case test (rat)
  ED50: 0.3 mg/kg

## COc1cccc(C(=O)N[C@@H]2C[C@H]3CC[C@@H](C2)N3Cc2cccc(C)c2)c1OC [compound 118]
[2]
  ED50: 0.016 mg/kg
Acute toxicity (mice)
  LD50: 90 mg/kg

## COc1cc(N)c(Br)cc1C(=O)N[C@@H]1C[C@H]2CC[C@@H](C1)N2Cc1ccccc1Cl [compound 121]
[2]
  ED50: 0.024 mg/kg
Acute toxicity (mice)
  LD50: 250 mg/kg

## CCOc1c(OC)cccc1C(=O)N[C@@H]1C[C@H]2CC[C@@H](C1)N2Cc1ccc(Cl)c(Cl)c1 [compound 145]
[2]
  ED50: 0.3 mg/kg
Acute toxicity (mice)
  LD50: > 400 mg/kg

## COc1cccc(C(=O)N[C@@H]2C[C@H]3CC[C@@H](C2)N3Cc2ccc(Br)cc2)c1OC [compound 129]
[2]
  ED50: 0.008 mg/kg
Acute toxicity (mice)
  LD50: 180 mg/kg

## COc1cccc(C(=O)N[C@@H]2C[C@H]3CC[C@@H](C2)N3Cc2ccc(C#N)cc2)c1OC [compound 180]
[2]
  ED50: 0.01 mg/kg
Acute toxicity (mice)
  LD50: 275 mg/kg

## COc1c(N)cc(Br)cc1C(=O)N[C@@H]1C[C@H]2CC[C@@H](C1)N2Cc1ccccc1 [compound 106]
[1]
  ED50: 1.6 mg/kg
[2]
  ED50: 0.053 mg/kg
Acute toxicity (mice)
  LD50: 160 mg/kg
Stair case test (rat)
  ED50: 8 mg/kg

## COc1cc(OC)c(OC)c(C(=O)N[C@@H]2C[C@H]3CC[C@@H](C2)N3Cc2ccccc2)c1 [compound 135]
[2]
  ED50: 0.01 mg/kg
Acute toxicity (mice)
  LD50: 70 mg/kg

## COc1cc(N)c(Cl)cc1C(=O)N[C@@H]1C[C@H]2CC[C@@H](C1)N2Cc1cccc(F)c1 [compound 127]
[2]
  ED50: 0.007 mg/kg
Acute toxicity (mice)
  LD50: 200 mg/kg

## COc1cccc(C(=O)N[C@@H]2C[C@H]3CC[C@@H](C2)N3Cc2cccc(F)c2)c1OC [compound 113]
[2]
  ED50: 0.016 mg/kg
Acute toxicity (mice)
  LD50: 140 mg/kg
